The source of these data is patent US20170275298A1, “INHIBITORS OF THE RENAL OUTER MEDULLARY POTASSIUM CHANNEL” (Merck Sharp & Dohme Corp., priority 2014, published 2017).

The target in the assay is T1, hROMK (hKir1.1) (Homo sapiens, UniProt P48048).
T1 construct: expressed in transfected cells
T1 sequence (P48048 1-391): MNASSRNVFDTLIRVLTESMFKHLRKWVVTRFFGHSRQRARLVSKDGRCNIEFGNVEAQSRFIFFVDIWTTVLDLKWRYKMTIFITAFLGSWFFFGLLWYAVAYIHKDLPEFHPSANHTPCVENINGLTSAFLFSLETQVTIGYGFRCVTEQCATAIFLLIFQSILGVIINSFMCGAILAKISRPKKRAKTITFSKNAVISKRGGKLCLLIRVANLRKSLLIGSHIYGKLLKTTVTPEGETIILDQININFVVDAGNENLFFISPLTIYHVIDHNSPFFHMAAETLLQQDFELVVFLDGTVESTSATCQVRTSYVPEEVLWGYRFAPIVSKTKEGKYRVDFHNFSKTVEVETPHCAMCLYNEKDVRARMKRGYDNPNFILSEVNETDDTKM
Put plainly: Thallium Flux Assay (ROMK channel functional thallium flux assay). The format is cell-based. Particulars: HEK293 cells stably expressing hROMK (hKir1.1); FluxOR thallium flux, FLIPR-Tetra, 30 min compound incubation; read-out: ROMK TI IC50. Summed up: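 HEK293 cells stably expressing hROMK (hKir1.1) loaded with FluxOR dye 90 min at ambient temperature, then compound 30 min before thallium/potassium stimulant (final 3 mM Tl/0.3 mM K). ROMK-sensitive flux defined by 3 μM standard inhibitor; data as % fluorescence change.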

`Cc1c([C@@H](O)CN2CCC3(CC2)CCN(c2cnc(Cl)cn2)CC3)ccc2c1COC2=O` [Example 132, (R)-5-(2-(9-(5-chloropyrazin-2-yl)-3,9-diazaspiro[5.5]undecan-3-yl)-1-hydroxyethyl)-4-methylisobenzofuran-1(3H)-one]: the IC50 stood at 22.8 nM.

As for `Cc1c([C@@H](O)CN2CCC3(CC2)CN(c2ccc(=O)n(C)n2)C(=O)O3)ccc2c1COC2=O` [Example 95, (R)-8-(2-hydroxy-2-(4-methyl-1-oxo-1,3-dihydroisobenzofuran-5-yl)ethyl)-3-(1-methyl-6-oxo-1,6-dihydropyridazin-3-yl)-1-oxa-3,8-diazaspiro[4.5]decan-2-one], the IC50 was found to be 488 nM.

For `Cc1c([C@@H](O)CN2CCC3(CC2)CCN(c2cnn(C)c(=O)c2)C3=O)ccc2c1COC2=O` [Example 49, (R)-8-(2-hydroxy-2-(4-methyl-1-oxo-1,3-dihydroisobenzofuran-5-yl)ethyl)-2-(1-methyl-6-oxo-1,6-dihydropyridazin-4-yl)-2,8-diazaspiro[4.5]decan-1-one], the IC50 was 176 nM.

With `Cc1c([C@@H](O)CN2CCC3(CC2)CCN(c2ccc(=O)n(C)n2)C3=O)ccc2c1COC2=O` [Example 56, (R)-8-(2-hydroxy-2-(4-methyl-1-oxo-1,3-dihydroisobenzofuran-5-yl)ethyl)-2-(1-methyl-6-oxo-1,6-dihydropyridazin-3-yl)-2,8-diazaspiro[4.5]decan-1-one], the IC50 was 35.1 nM.

For `Cc1c([C@H](O)CN2CCC3(CC2)CCN(c2ccc(=O)n(C)n2)C3=O)ccc2c1COC2=O` (single isomer, unassigned) [Example 57], the IC50 amounted to 252 nM.

`Cc1c([C@@H](O)CN2CCC3(CC2)CCN(c2ccc(=O)n(C)c2)C3=O)ccc2c1COC2=O` [Example 82, (R)-8-(2-hydroxy-2-(4-methyl-1-oxo-1,3-dihydroisobenzofuran-5-yl)ethyl)-2-(1-methyl-6-oxo-1,6-dihydropyridin-3-yl)-2,8-diazaspiro[4.5]decan-1-one]: the IC50 came to 424 nM.

For `Cc1c([C@@H](O)CN2CCC3(CC2)CC(=O)N(c2ccc(=O)n(C)n2)C3)ccc2c1COC2=O` [Example 30, (R)-8-(2-hydroxy-2-(4-methyl-1-oxo-1,3-dihydroisobenzofuran-5-yl)ethyl)-2-(1-methyl-6-oxo-1,6-dihydropyridazin-3-yl)-2,8-diazaspiro[4.5]decan-3-one], the IC50 was determined as 95.1 nM.

For `Cc1c([C@@H](O)CN2CCC3(CC2)CCN(c2cncc(F)c2)C3=O)ccc2c1COC2=O` [Example 38, (R)-2-(5-fluoropyridin-3-yl)-8-(2-hydroxy-2-(4-methyl-1-oxo-1,3-dihydroisobenzofuran-5-yl)ethyl)-2,8-diazaspiro[4.5]decan-1-one], the IC50 came to 82.5 nM.

`Cc1c([C@@H](O)CN2CCC3(CC2)C[C@@H](C)N(c2ccc(=O)n(C)n2)C3=O)ccc2c1COC2=O` [Example 98, (R)-8-((R)-2-hydroxy-2-(4-methyl-1-oxo-1,3-dihydroisobenzofuran-5-yl)ethyl)-3-methyl-2-(1-methyl-6-oxo-1,6-dihydropyridazin-3-yl)-2,8-diazaspiro[4.5]decan-1-one]: the IC50 was 54.7 nM.

Regarding `Cc1c([C@@H](O)CN2CCC3(CC2)CCN(c2ncccn2)CC3)ccc2c1COC2=O` [Example 136, (R)-5-(1-hydroxy-2-(9-(pyrimidin-2-yl)-3,9-diazaspiro[5.5]undecan-3-yl)ethyl)-4-methylisobenzofuran-1(3H)-one], the IC50 was 330 nM.

For `Cc1c([C@@H](O)CN2CCC3(CCCN(c4ccc(=O)n(C)n4)C3=O)CC2)ccc2c1COC2=O` [Example 29, (R)-9-(2-hydroxy-2-(4-methyl-1-oxo-1,3-dihydroisobenzofuran-5-yl)ethyl)-2-(1-methyl-6-oxo-1,6-dihydropyridazin-3-yl)-2,9-diazaspiro[5.5]undecan-1-one], the IC50 is 145 nM.

Consider `Cc1c([C@@H](O)CN2CCC3(CC2)CCN(c2cnsc2)C3=O)ccc2c1COC2=O` [Example 72, (R)-8-(2-hydroxy-2-(4-methyl-1-oxo-1,3-dihydroisobenzofuran-5-yl)ethyl)-2-(isothiazol-4-yl)-2,8-diazaspiro[4.5]decan-1-one], for which the IC50 came to 20 nM.

Turning to `Cc1c([C@@H](O)CN2CCC3(CC2)CCN(c2ccccn2)CC3)ccc2c1COC2=O` [Example 112, 3-[(2R)-2-hydroxy-2-(4-methyl-1-oxo-1,3-dihydro-2-benzofuran-5-yl)ethyl]-9-pyridin-2-yl-9-aza-3-azoniaspiro[5.5]undecane], the IC50 was 282 nM.

In the case of `Cc1c([C@@H](O)CN2CCC3(CC2)CCN(c2cnc(C(F)(F)F)cn2)CC3)ccc2c1COC2=O` [Example 125, (R)-5-(1-hydroxy-2-(9-(5-(trifluoromethyl)pyrazin-2-yl)-3,9-diazaspiro[5.5]undecan-3-yl)ethyl)-4-methylisobenzofuran-1(3H)-one], the IC50 is 492 nM.

On to `Cc1nccc(N2CCC3(CCN(C[C@H](O)c4ccc5c(c4C)COC5=O)CC3)C2=O)n1` [Example 41, (R)-8-(2-hydroxy-2-(4-methyl-1-oxo-1,3-dihydroisobenzofuran-5-yl)ethyl)-2-(2-methylpyrimidin-4-yl)-2,8-diazaspiro[4.5]decan-1-one], for which the IC50 was determined as 193 nM.

On to `COc1cc(N2CCOC3(CCN(C[C@H](O)c4ccc5c(c4C)COC5=O)CC3)C2=O)ccn1` [Example 23, (R)-9-(2-hydroxy-2-(4-methyl-1-oxo-1,3-dihydroisobenzofuran-5-yl)ethyl)-4-(2-methoxypyridin-4-yl)-1-oxa-4,9-diazaspiro[5.5]undecan-5-one], for which the IC50 is 407 nM.

Turning to `O[C@@H](CN1CCC2(CC1)CCN(c1cncc(Cl)n1)CC2)c1ccc(-n2cnnn2)nc1` [Example 134, (R)-1-(6-(1H-tetrazol-1-yl)pyridin-3-yl)-2-(9-(6-chloropyrazin-2-yl)-3,9-diazaspiro[5.5]undecan-3-yl)ethanol], the IC50 is 747 nM.

`Cc1c([C@@H](O)CN2CCC3(CC2)CCN(c2nc(CO)ns2)C3=O)ccc2c1COC2=O` [Example 83, (R)-8-(2-hydroxy-2-(4-methyl-1-oxo-1,3-dihydroisobenzofuran-5-yl)ethyl)-2-(3-(hydroxymethyl)-1,2,4-thiadiazol-5-yl)-2,8-diazaspiro[4.5]decan-1-one]: the IC50 was determined as 832 nM.

For the molecule `COc1ccc(N2CCC3(CCN(C[C@H](O)c4ccc5c(c4C)COC5=O)CC3)C2=O)nn1` [Example 36, (R)-8-(2-hydroxy-2-(4-methyl-1-oxo-1,3-dihydroisobenzofuran-5-yl)ethyl)-2-(6-methoxypyridazin-3-yl)-2,8-diazaspiro[4.5]decan-1-one], the IC50 amounted to 393 nM.

As for `COc1nccc(N2CC3(CCN(C[C@H](O)c4ccc5c(c4C)COC5=O)CC3)CC2=O)n1` [Example 31, (R)-8-(2-hydroxy-2-(4-methyl-1-oxo-1,3-dihydroisobenzofuran-5-yl)ethyl)-2-(2-methoxypyrimidin-4-yl)-2,8-diazaspiro[4.5]decan-3-one], the IC50 was 153 nM.

Regarding `Cc1c([C@@H](O)CN2CCC3(CC2)CCN(c2cn(C)c(=O)cn2)C3=O)ccc2c1COC2=O` [Example 94, (R)-8-(2-hydroxy-2-(4-methyl-1-oxo-1,3-dihydroisobenzofuran-5-yl)ethyl)-2-(4-methyl-5-oxo-4,5-dihydropyrazin-2-yl)-2,8-diazaspiro[4.5]decan-1-one], the IC50 was found to be 272 nM.

As to `COc1cnc(N2CCC3(CCN(C[C@H](O)c4ccc5c(c4C)COC5=O)CC3)CC2)cn1` [Example 141, (R)-5-(1-hydroxy-2-(9-(5-methoxypyrazin-2-yl)-3,9-diazaspiro[5.5]undecan-3-yl)ethyl)-4-methylisobenzofuran-1(3H)-one], the IC50 came out at 350 nM.

`Cc1c([C@@H](O)CN2CCC3(CC2)CCN(c2ccnc(Cl)n2)C3=O)ccc2c1COC2=O` [Example 92, (R)-2-(2-chloropyrimidin-4-yl)-8-(2-hydroxy-2-(4-methyl-1-oxo-1,3-dihydroisobenzofuran-5-yl)ethyl)-2,8-diazaspiro[4.5]decan-1-one]: the IC50 stood at 110 nM.

As to `Cc1c([C@@H](O)CN2CCC3(CC2)CCN(c2ncc(C(F)(F)F)cc2F)CC3)ccc2c1COC2=O` [Example 119, (R)-5-(2-(9-(3-fluoro-5-(trifluoromethyl)pyridin-2-yl)-3,9-diazaspiro[5.5]undecan-3-yl)-1-hydroxyethyl)-4-methylisobenzofuran-1(3H)-one], the IC50 came to 967 nM.

In the case of `CNc1nccc(N2CCC3(CCN(C[C@H](O)c4ccc5c(c4C)COC5=O)CC3)C2=O)n1` [Example 47, (R)-8-(2-hydroxy-2-(4-methyl-1-oxo-1,3-dihydroisobenzofuran-5-yl)ethyl)-2-(2-(methylamino)pyrimidin-4-yl)-2,8-diazaspiro[4.5]decan-1-one], the IC50 came to 58.5 nM.

On to `Cc1c([C@@H](O)CN2CCC3(CC2)OCCN(c2ccncc2)C3=O)ccc2c1COC2=O` [Example 26, (R)-9-(2-hydroxy-2-(4-methyl-1-oxo-1,3-dihydroisobenzofuran-5-yl)ethyl)-4-(pyridin-4-yl)-1-oxa-4,9-diazaspiro[5.5]undecan-5-one], for which the IC50 turned out to be 238 nM.

What is called IC50 is the concentration at which inhibition is half-maximal.
